Data set [1] addresses T1, HDAC8 (Homo sapiens, UniProt Q9BY41).
T1 sequence (Q9BY41 1-377): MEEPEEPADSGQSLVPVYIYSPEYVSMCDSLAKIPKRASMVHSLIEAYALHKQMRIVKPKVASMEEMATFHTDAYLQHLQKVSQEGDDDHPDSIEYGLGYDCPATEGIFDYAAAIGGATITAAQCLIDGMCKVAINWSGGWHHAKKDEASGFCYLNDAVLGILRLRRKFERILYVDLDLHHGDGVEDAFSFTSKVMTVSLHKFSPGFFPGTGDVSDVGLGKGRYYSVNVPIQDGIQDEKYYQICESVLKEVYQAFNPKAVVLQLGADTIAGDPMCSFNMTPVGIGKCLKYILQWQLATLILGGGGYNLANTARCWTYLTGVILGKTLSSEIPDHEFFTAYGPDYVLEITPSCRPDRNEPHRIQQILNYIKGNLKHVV
The data set is described as follows: HDAC inhibition, electrophoretic mobility shift assay. In kind it is biochemical. In general terms: Mobility shift assays separate free from complexed probe on a gel.

The target of data set [2] is T2, HDAC6 (Homo sapiens, UniProt Q9UBN7).
T2 sequence (Q9UBN7 1-1215): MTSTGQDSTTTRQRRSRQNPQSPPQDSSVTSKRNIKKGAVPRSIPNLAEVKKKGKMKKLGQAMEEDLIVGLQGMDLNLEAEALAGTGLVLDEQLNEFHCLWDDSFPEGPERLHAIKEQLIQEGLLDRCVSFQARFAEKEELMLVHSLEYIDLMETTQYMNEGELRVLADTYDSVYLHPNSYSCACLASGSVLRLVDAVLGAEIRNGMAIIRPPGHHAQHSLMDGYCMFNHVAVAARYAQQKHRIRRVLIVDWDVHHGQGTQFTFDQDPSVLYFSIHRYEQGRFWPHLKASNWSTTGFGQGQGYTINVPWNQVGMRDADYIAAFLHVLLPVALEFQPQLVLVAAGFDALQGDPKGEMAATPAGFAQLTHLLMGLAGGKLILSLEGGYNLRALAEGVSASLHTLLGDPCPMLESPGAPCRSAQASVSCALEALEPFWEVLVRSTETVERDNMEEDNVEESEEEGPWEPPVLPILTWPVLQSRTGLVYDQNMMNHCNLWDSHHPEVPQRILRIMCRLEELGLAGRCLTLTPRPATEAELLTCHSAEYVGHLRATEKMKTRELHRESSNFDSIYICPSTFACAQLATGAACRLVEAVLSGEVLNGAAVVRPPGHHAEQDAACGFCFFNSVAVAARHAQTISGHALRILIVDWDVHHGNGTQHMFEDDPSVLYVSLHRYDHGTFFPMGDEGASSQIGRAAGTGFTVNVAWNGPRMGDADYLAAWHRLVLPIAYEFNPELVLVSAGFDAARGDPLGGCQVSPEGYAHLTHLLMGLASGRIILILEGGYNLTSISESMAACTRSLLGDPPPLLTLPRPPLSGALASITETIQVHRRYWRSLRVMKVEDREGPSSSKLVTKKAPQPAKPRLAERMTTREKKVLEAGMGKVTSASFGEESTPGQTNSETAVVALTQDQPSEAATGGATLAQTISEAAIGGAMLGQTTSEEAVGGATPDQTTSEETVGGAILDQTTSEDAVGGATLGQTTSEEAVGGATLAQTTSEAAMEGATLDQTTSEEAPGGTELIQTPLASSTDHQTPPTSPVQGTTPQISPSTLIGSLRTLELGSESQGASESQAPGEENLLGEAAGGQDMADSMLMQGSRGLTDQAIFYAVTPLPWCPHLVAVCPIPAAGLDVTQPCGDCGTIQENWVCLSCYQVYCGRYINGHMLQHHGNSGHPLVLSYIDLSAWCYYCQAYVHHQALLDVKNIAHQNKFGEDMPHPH
The data set is described as above. In kind it is biochemical. The settings on record: EMSA, n = 2.

Data set [3] deals with MRC-9 lung cells (noncancerous). The data set is described as follows: Cytotoxicity assay. The format is cell-based, human.
The test system of data set [4] is brain tumor stem cell (BTSC) glioblastoma lines. The data set is described as follows: Cytotoxicity assay in GBM BTSCs. The format is cell-based, human. The settings on record: multiple BTSC glioblastoma lines.
The test system of data set [5] is NSG mice. Nature of the data set: Toxicity study. In kind it is in vivo.
Data set [6] in a line: Mouse plasma protein binding assay. The format is in vitro ADME. The settings on record: both, CD-1, mouse.
The nature of data set [7]: Single-dose pharmacokinetics in NSG mice. In kind it is in vivo, mouse.
Data set [8] relates to STAT5b (total and pY694). The data set is described as follows: Western blot, STAT5 signaling in MV4–11 cells. In kind it is cell-based, human. The settings on record: at 10 μM.
Data set [9] is described as follows: Glutathione stability assay using 19F NMR. In kind it is physicochemical. To be noted: 100-fold excess glutathione, after 16 h.
The target of data set [10] is HDAC3 (Homo sapiens, UniProt O15379). Nature of the data set: HDAC inhibition, electrophoretic mobility shift assay. The format is biochemical. To be noted: EMSA, n = 2.
Chain of HDAC3 (O15379 whole entry): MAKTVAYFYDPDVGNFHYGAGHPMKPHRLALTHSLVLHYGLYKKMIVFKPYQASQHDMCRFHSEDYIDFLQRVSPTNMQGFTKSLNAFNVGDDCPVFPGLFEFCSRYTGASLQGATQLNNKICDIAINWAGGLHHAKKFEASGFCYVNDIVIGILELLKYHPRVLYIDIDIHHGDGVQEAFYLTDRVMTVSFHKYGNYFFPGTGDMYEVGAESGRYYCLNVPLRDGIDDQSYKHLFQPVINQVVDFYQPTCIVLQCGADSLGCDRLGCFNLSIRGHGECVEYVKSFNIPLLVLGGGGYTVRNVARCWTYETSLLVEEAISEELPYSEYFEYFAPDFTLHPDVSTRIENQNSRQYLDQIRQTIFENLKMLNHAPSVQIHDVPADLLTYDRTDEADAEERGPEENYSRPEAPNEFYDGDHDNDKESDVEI
Chain of HDAC3 (Q9Y618 395-489 partner limits assumed): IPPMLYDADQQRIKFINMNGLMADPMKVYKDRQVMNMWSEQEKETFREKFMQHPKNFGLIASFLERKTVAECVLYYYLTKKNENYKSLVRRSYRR
Data set [11] relates to STAT3 (total and pY705). The data set is described as follows: Western blot, STAT3 signaling in MDA-MB-231 cells. In kind it is cell-based, human. The settings on record: at 10-fold of the IC50. (Immunoblotting shows a protein as a band on a membrane.)
For data set [12], the system named is PC-3 prostate cancer cells. Nature of the data set: Cytotoxicity in prostate cancer cells. The format is cell-based, human.
The subject of data set [13] is D458 recurrent MDB cells. The data set is described as follows: Cytotoxicity assay in medulloblastoma cells. The format is cell-based, human.
In data set [14] the target is T3, HDAC10 (Homo sapiens, UniProt Q969S8).
T3 sequence (Q969S8 1-669): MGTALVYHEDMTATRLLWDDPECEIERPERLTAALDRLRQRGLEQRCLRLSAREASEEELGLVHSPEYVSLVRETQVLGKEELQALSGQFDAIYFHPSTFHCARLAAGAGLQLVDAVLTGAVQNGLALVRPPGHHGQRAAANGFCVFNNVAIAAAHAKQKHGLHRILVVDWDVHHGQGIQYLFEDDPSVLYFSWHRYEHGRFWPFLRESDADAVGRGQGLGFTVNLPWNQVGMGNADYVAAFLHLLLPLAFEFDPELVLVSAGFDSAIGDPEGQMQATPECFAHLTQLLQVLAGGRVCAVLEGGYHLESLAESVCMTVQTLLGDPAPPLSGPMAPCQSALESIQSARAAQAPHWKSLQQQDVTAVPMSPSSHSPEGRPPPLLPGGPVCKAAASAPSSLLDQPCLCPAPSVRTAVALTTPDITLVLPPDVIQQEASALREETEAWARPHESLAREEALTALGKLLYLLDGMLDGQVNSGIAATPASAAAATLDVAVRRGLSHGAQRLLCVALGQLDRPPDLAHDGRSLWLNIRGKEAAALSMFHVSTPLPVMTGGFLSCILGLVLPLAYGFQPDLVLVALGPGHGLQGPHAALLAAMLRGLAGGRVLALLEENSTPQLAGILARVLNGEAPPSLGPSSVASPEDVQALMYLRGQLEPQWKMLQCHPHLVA
Nature of the data set: HDAC inhibition, EMSA at fixed concentration. In kind it is biochemical.

Data set [15] is described as follows: Glutathione stability assay using HPLC. In kind it is physicochemical. The settings on record: 100-fold excess reduced L-glutathione, HEPES buffer pH 7.4, after 25 h.
Data set [16] has as its system MOLM-13 acute myeloid leukemia (AML) cells. The data set is described as follows: Cytotoxicity assay. In kind it is cell-based, human. To be noted: MOLM-13 AML cells.
Data set [17] concerns chronic myelogenous leukemia K562 cells. Nature of the data set: Cytotoxicity assay. In kind it is cell-based, human.
Data set [18] in a line: Serum concentration after 5 days daily dosing in NSG mice. In kind it is in vivo, mouse. To be noted: for concentration at 5 h: NSG, mouse, serum, intraperitoneal.
Data set [19] deals with equivalent immunodeficient mice. The data set is described as follows: Orthotopic tumor model in immunodeficient mice, survival.
In data set [20] the target is HDAC1 (Homo sapiens, UniProt Q13547). The data set is described as follows: HDAC inhibition, EMSA at fixed concentration. In kind it is biochemical.
Chain of HDAC1 (Q13547 whole entry): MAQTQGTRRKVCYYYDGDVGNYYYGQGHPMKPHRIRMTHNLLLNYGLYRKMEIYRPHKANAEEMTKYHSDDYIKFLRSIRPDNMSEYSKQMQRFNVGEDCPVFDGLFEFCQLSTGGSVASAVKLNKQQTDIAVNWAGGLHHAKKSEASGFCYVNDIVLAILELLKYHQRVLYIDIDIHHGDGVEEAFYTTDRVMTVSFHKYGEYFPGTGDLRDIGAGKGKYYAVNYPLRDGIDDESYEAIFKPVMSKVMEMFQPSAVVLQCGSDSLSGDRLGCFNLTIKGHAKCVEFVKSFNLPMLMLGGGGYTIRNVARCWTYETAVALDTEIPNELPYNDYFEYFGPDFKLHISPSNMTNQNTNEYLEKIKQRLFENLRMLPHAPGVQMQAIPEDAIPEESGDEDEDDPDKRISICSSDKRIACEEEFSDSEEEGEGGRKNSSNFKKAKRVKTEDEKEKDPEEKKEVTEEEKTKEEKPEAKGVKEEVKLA
Data set [21] concerns the target HDAC4 (Homo sapiens, UniProt P56524). Nature of the data set: HDAC inhibition, EMSA at fixed concentration. The format is biochemical.
Data set [22] relates to D425 primary medulloblastoma (MDB) cells. The data set is described as follows: Cytotoxicity assay in medulloblastoma cells. The format is cell-based, human.
For data set [23], the system named is MV4–11 AML cells. Nature of the data set: Cytotoxicity assay. In kind it is cell-based. To be noted: Homo sapiens, MV4-11, read-out: IC50 (cytotoxicity).
Data set [24] has as its target T4, HDAC11 (Homo sapiens, UniProt Q96DB2).
T4 sequence (Q96DB2 1-347): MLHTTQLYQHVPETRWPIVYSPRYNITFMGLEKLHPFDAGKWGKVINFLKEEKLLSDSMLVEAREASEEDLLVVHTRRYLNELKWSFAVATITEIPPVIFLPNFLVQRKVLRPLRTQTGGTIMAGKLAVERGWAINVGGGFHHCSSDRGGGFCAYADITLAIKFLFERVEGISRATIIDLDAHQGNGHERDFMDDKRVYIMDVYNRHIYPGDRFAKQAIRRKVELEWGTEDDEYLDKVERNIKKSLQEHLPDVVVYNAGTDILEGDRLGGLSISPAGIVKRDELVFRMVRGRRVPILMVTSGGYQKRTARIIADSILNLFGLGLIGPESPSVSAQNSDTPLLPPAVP
Nature of the data set: HDAC inhibition, electrophoretic mobility shift assay. In kind it is biochemical. The settings on record: EMSA, n = 2.

A short description of data set [25]: Caco-2 permeability assay. In kind it is in vitro ADME. The settings on record: human. For orientation: Caco-2 cells form a polarised layer with tight junctions and transporters.

The structures appear in SMILES notation.

Chain of HDAC4 (P56524 whole entry): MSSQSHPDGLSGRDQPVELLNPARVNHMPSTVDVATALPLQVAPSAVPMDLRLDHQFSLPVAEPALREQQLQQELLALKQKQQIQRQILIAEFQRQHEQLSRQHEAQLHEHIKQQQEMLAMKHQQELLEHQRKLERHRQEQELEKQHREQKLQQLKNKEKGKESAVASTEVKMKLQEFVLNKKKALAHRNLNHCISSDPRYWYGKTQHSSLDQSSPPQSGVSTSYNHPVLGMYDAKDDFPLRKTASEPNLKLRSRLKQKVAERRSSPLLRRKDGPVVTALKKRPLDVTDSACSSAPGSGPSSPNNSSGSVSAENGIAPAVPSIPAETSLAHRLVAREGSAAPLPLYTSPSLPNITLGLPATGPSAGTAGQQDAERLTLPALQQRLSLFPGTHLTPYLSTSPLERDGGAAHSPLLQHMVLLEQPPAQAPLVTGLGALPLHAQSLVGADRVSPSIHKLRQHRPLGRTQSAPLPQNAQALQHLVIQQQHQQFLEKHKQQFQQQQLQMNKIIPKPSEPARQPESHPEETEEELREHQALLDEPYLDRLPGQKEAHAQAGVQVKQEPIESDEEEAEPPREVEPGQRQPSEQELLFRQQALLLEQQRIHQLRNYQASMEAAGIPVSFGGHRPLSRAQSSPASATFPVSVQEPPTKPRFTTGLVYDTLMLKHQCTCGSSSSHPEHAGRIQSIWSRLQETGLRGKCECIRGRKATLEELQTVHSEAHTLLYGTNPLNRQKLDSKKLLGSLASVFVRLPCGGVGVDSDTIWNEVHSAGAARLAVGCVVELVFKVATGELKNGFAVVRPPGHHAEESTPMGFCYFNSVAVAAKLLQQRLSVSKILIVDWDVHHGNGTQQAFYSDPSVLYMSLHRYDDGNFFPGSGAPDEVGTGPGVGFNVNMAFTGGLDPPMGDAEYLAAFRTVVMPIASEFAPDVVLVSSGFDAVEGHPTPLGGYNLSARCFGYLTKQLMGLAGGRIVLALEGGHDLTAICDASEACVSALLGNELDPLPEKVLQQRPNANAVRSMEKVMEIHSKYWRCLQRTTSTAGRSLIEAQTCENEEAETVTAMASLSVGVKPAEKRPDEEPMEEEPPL

For the molecule `CC(C)(C)c1ccc(CN(C(=O)CN(Cc2c(F)c(F)c(F)c(F)c2F)S(=O)(=O)c2ccc(F)cc2)c2ccc(C(=O)NO)cc2)cc1` [AES-135, 4-(N-(4-(tert-Butyl)benzyl)-2-((4-fluoro-N-((perfluorophenyl)-methyl)phenyl)sulfonamido)acetamido)-N-hydroxybenzamide], the figures for the concentration for half-maximal inhibition (IC50) in data set [1] and in [23] were 1100 nM and 1880 ± 890 nM, respectively. For the same molecule, the inhibition (usually the change of the read-out against control, counted positive when it falls) at 10 µM in data set [1] (read-out: % inhibition HDAC8, at 10 μM, EMSA, n = 2) was > 90%; in data set [2] (read-out: % inhibition HDAC6, at 10 μM), > 90%; in [10] (read-out: % inhibition HDAC3, at 10 μM) it was > 90%; in [14] (read-out: % inhibition HDAC10, at 10 μM, n = 2), ≥ 70%; in [20] (read-out: % inhibition HDAC1, at 10 μM, n = 2) it was ≥ 70%; in data set [21] (read-out: % inhibition HDAC4, at 10 μM, n = 2) it was < 20%. Moreover, the inhibition at 10 µM in [24] (read-out: % inhibition HDAC11, at 10 μM) is > 90%. The “toxicity in noncancerous cells” value in [3] is listed as “minimal toxicity”. The cytotoxic potency entry in [4] is “low μM potency”; in [12], “low μM potency”; in [13] it was “nM activity”; in data set [16] it was “low μM potency”; in [22], “nM activity”. For the same molecule, the “toxicity assessed via weight loss” value in data set [5] (60 mg/kg IP daily for 4–5 days, n = 6) was “no significant weight loss”. Also, in [5] (10 and 40 mg/kg IP once a day for 5 days), the “toxicity based on percentage weight loss compared to vehicle control” value is “No visible toxicity”. The recovery at 6 h in data set [6] (mouse plasma) is 16 to 20%. The fraction unbound (usually free concentration divided by total concentration) at 6 h in [6] (plasma) was 0.004. In addition, the “duration of micromolar (μM) concentrations” value in data set [7] (IP injection) is recorded as > 10 h. Also, in data set [7] (single 20 mg/kg IP, assuming bioavailability to be 100%), the clearance rate is 0.004 L/h. Further, the “effect on total STAT5b and pY694 STAT5b (Western blot)” value in data set [8] is “failed to suppress total STAT5b or pY694 STAT5b”. Besides, the “stability to glutathione (19F NMR)” value in data set [9] was “no displacement of fluoride was observed”. In addition, in data set [11], the “effect on total STAT3 and pY705 STAT3 (Western blot)” value is “neither total STAT3 nor pY705 STAT3 was significantly reduced”. Besides, in [15], the “stability to glutathione (HPLC)” value is “No discernible reaction was observed”. The sensitivity to cytotoxicity entry in data set [17] was “resistant”. The “increase in blood concentration from quadrupling the dose” value in [18] (40 vs 10 mg/kg) is listed as ~5.7 fold. For the same molecule, the concentration at 5 h in data set [18] (10 mg/kg) turned out to be 323 ng/mL; in data set [18] (40 mg/kg), 1830 ng/mL. Also, the survival advantage entry in data set [19] is reported as “no obvious survival advantage”. The Papp A→B (in general, the apparent permeability from the apical to the basolateral side of a cell layer) at 5 µM in [25] is 0.27 ×10⁻⁶ cm/s. In addition, the efflux ratio (in general, the permeability from basolateral to apical divided by that in the opposite direction, in the common usage) at 5 µM in [25] stood at 3.83.

`CN(O)C(=O)c1ccc(N(Cc2ccc(C(C)(C)C)cc2)C(=O)CN(Cc2c(F)c(F)c(F)c(F)c2F)S(=O)(=O)c2ccc(F)cc2)cc1` [compound 60, 4-(N-(4-(tert-Butyl)benzyl)-2-((4-fluoro-N-((perfluorophenyl)-methyl)phenyl)sulfonamido)acetamido)-N-hydroxy-N-methylbenzamide]: the “% inhibition HDAC8” value in data set [1] (at 10 μM, EMSA, n = 2) amounted to 0%. Also, the “% inhibition HDAC6” value in data set [2] (at 10 μM) amounted to 12%. In addition, the “% inhibition HDAC3” value in [10] (at 10 μM) was 0%. Further, the “% inhibition HDAC10” value in data set [14] (at 10 μM, n = 2) was 0%. Moreover, the “% inhibition HDAC1” value in data set [20] (at 10 μM, n = 2) came to 0%. Further, the “% inhibition HDAC4” value in data set [21] (at 10 μM, n = 2) is given as 0%. The “% inhibition HDAC11” value in data set [24] (at 10 μM) is on record as 64%.

Source of the values: article PMC7190078 (Journal of medicinal chemistry, 2019).
